Experimental data taken from patent US8151795B2, “Method of demand valve oxygen therapy for rapid abort of cluster headache” (Linde AG, priority 2008, dated 2012).
“And” between values parts separate entries of the source, which are not always exact repeats. Identical values can stand only once. Like-named read-outs stand apart in the source and are kept apart here.

Legend:
[1] = system: cluster headache patients; conditions: nasal spray at doses of 5 and 10 mg; cited from earlier work
[2] = system: cerebral blood flow; conditions: 5% carbon dioxide; young men; cited from earlier work
[3] = system: pulmonary ventilation rate; conditions: increase of about 0.25% alveolar carbon dioxide; cited from earlier work
[4] = system: patients with episodic and chronic cluster headache; conditions: episodic and chronic disease; cited from earlier work
[5] = system: cluster headache sufferers
Excerpt: It is critical that the cluster headache sufferer fully inhale and exhale as completely as possible during the first three phases of the method of the present invention, in order to insure more complete ventilation of the lungs during hyperventilation and the expelling of carbon dioxide, a vasodilative agent, as rapidly as possible. The four phases of the invented demand valve method are herein described in more detail.
Taking three to four very deep breaths of oxygen from the demand valve, exhaling and inhaling as completely as possible with each breath, starts the process of clearing the residual Nitrogen from the lungs and also starts the shift into hyperoxia, which can be defined as having more oxygen in the blood than normal.
In Phase 3, slow hyperventilation, which has a recommended respiration rate of 30 breaths per minute, the purpose is to maintain the benefits of hyperventilation, respiratory alkalosis, hypocapnia, and hyperoxia, but at a more comfortable respiration rate. […] The cluster headache sufferer should maintain this respiration rate until the cluster headache pain has clearly subsided.

[6] = system: cluster headache patients; conditions: cited from earlier work; for headache response: Rozen 2004; for subjects in whom oxygen is effective: standard of care continuous flow
[7] = system: cluster headache patients; conditions: cited from earlier work
[8] = system: cerebral blood flow; conditions: cited from earlier work
[9] = system: Extracerebral Flow Index; conditions: cluster headache patients during headache interval, during 100% oxygen inhalation; cited from earlier work
[10] = system: normal human subjects; conditions: cited from earlier work
[11] = system: cluster headache patients; conditions: cited from earlier work; remark: listed apart in the source
[12] = after 10 minutes of oxygen inhalation

CN(C)CCc1c[nH]c2ccc(C[C@H]3COC(=O)N3)cc12 [Zolmitriptan]
acute treatment of cluster headache [1]: effective and tolerable

O=C=O [carbon dioxide]
increase in CBF [2]: 59% | increase in pulmonary ventilation rate [3]: 100%

O=O [hyperbaric oxygen]
prophylactic effect [4]: no significant prophylactic effect

O=O [oxygen]
re-attacks (attack 15 to 45 minutes after successful abort), incidence per aborts ([5]; Kip pain level high (7-8) and abort times less than 15 min): 1 out of 4 | success rate of aborting cluster headache ([5]; demand valve method, chronic sufferers over 50, attacks of Kip 8 pain level or below): 95% and > 95% | reduction of time for complete abort vs non-rebreathing mask with 15 l/min continuous flow oxygen ([5]; demand valve method, same pain level): ~50% | time to abort ([5]; demand valve method, the one Kip 9 cluster headache recorded): 25 min | adverse effects or symptoms ([5]; many months of continuous use, other than dry mouth): no adverse effects or symptoms encountered | re-attacks after extending oxygen use after abort ([5]; total of 20 minutes of continuous oxygen inhalation): largely or totally eliminated | time to being effective ([6]; 7 to 12 l/min continuous flow, non-rebreathing mask): ≤ 5 min | adverse effects of oxygen for cluster headache ([6]; Ekbom 2002, Matharu 2003): no established adverse effects | patients obtaining significant relief from cluster pain ([6]; Kudrow 1981, cessation of pain within 15 minutes for at least 7 of 10 attacks): 75% | least benefit ([6]; Kudrow 1981, chronic patients over 49 years of age): 57% | greatest benefit ([6]; Kudrow 1981, episodic patients under 50 years of age): 92.9% | headache response ([6]; 7-10 l/min flow rate): no change in headache intensity | headache response ([6]; higher flow rate (15 l/min)): complete or near-complete headache alleviation | patients having success ([6]; chronic patients, standard of care oxygen therapy): 68.4% | patients responding favorably ([6]; episodic patients, standard of care oxygen therapy): 78% | subjects in whom oxygen is effective ([6]; non-rebreathing mask): ~70% | subjects in whom oxygen is effective ([6]; non-rebreathing mask, listed as 100% oxygen): 70% | patients noting oxygen simply delays the attack rather than aborting it ([6]; standard of care method (Matharu 2003)): up to 25% | average decrease of superficial temporal artery pulse amplitude [7, 12]: 30% | patients with decreased pulse amplitude of superficial temporal artery, symptomatic side [7, 12]: 15 of the 16 | headache subsiding almost completely ([7]; after 15 minutes, 16 patients studied): 12 patients | patients reporting at least some relief ([7]; after breathing 100% oxygen for 10 minutes): 15 of 16 | decrease in CBF ([8]; Floyd 2003, transition from air to 100% O2 at 1.0 ATA, MRI): 33% | CBF values for temporal cortex and basal ganglia ([8]; Kawamura 1991, after 100% oxygen for five minutes, five cluster headache patients): significantly decreased below normal values | decrease of cerebral blood flow ([8]; Kety, healthy young male volunteers): approximately 13% | reduction of Fg (CBF in gray brain matter) ([8]; Sakai 1979, normal volunteers of both sexes): 9.4+/−5.4% | EFI values [9]: 7+/−2% | toxic effects ([10]; Kafer 1971, within 3 hours of exposure): no toxic effects | duration for which exposure is safe ([10]; Sackner 1975, atmospheric pressure): less than 6 hours | earliest occurrence of substernal stress after start of oxygen breathing ([10]; Sackner 1975): 4 h

CNS(=O)(=O)Cc1ccc2[nH]cc(CCN(C)C)c2c1 [sumatriptan]
patients in whom effective (pain free in 20 minutes) ([11]; 6 mg injected subcutaneously, double blind placebo controlled trials): about 75% | lower effectiveness in chronic than in episodic cluster ([11]; sumatriptan injection (Rozen 2002)): 8%
